In patent publication US9896423B2, “Deuterium substituted 1-[2-(2,4-dimethyl-phenylsulfanyl)-phenyl]piperazine compound or derivatives thereof, and pharmaceutical composition and use thereof” (Jiangsu Jibeier Pharmaceutical Co. Ltd., priority 2014, dated 2018):
Where “and” joins values, the source holds several entries; their conditions need not be identical. Equal values may be shown once. Read-outs that look alike come from different tables or passages of the source.

Tests used:
Male SD rats = assay: Rats swimming test; type: in vivo
Text: (§1) The following method is used for testing the antidepression effect of the compound of the present application. ICR mice or SD rats, gavaged for two successive weeks, were subjected to mice swimming test, mice tail suspension test and rats swimming test. See below for details of the tests and results.
Male SD rats weighing 200 to 220 g were used and they were fed with sterilized standard feed. The medicaments were the same as those in the mice tail suspension test, but the dosage administered to rats was half of that to mice.
Drug solution preparation: Since the dosage applied on rats was 1 ml/100 g body weight, the medicament solutions used in this test had the same concentrations as those used on mice.
The apparatus was the same as that in the […].
The rats were fasted for 4 hours, put in a round glass tank (ø 18 cm×h 40 cm, with water of 15 cm depth and at a temperature of 25° C.), and were allowed to swim for 15 min. One tank accommodated one rat at a time. The tank was refilled with clean water for another rat after one rat finished swimming. The rats were dried with a hot-air blower after swimming.
The forty rats were divided into 4 groups, each of which has 10 rats, according to the Excel random grouping.
The medicaments were correspondingly administered 1 ml/100 g body weight by gavage, once a day, to the animals in each test group for 14 successive days. The rat swimming test was performed one hour later after the last administration.
(§2) The data was given as “average±standard deviation” (x±s). One-way analysis of variance (ANOVA) was used for data difference statistics. Differences among the groups were determined by P<0.05.

Male ICR mice = assay: Mice tail suspension test; type: in vivo
Text: as §1
The animals, medicaments, calculation of dosages to the mice, preparation of drug solution and apparatus are the same as those in the mice swimming test.
The medicaments were correspondingly administered by gavage, once a day, to the animals in the groups for 14 successive days, with the amount of 0.2 ml per 10 g of body weight. The mice were subjected to tail suspension one hour later after the last oral administration. The suspension continued for 6 min.
as §2

[1] = Pharmacokinetic test in rats, intravenous injection; type: in vivo, SD rats; conditions: 2 mg/kg iv; for concentration at 0.05 h / concentration at 0.133 h / concentration at 4 h / concentration at 6 h / concentration at 9 h / concentration at 12 h / concentration at 24 h: male, SD, rat, plasma, intravenous, 2 mg/kg
Experimental: The preferred compound of the present disclosure was assessed in rats for its pharmacokinetic profile.
SD rats, male and female, weighing 150 to 250 g
Mobile phase: 10 mM ammonium formate aqueous solution:methanol=15:85
The ionization source was electrospray ionization source. The detection mode was positive mode. Multiple reaction monitoring (MRM) was used as the scanning mode. The ion reaction for the quantitative analysis was the following: m/z was 305.2\150.0 for XX, and 256.1\167.1 for diphenhydramine (the internal standard).
Four male SD rats were taken. The dosage was calculated as 5 mL/kg body weight and 2 mg/kg. XX or YY was dissolved in DMSO (3% of a total volume) and castor oil (3% of the total volume) was added to the solution, followed by agitating with a vortex mixer. Subsequently, saline was added to the mixture to the total volume to afford the intravenous injection for the rats. The injections were intravenously administered to four male SD rats. Blood from the rats' orbits was collected 3 min, 8 min, 15 min, 30 min, 1 hr, 2 hr, 3 hr, 4 hr, 6 hr, 9 hr, 12 hr and 24 hr later after the injection, respectively.
After the blood collection, the tubes were immediately gently turned upside down at least five times to ensure sufficient mixing, and placed on ice. Heparin was added for anticoagulation. The samples were centrifuged at 8000 rpm for 5 min to separate serum from erythrocyte. The serum was transferred with a pipettor to 2 mL polypropylene (PP) tubes, which were marked with the name of the compound and the time points, and stored in a refrigerator at −40° C. before LC-MS analysis. Samples with high concentrations were diluted with rat blank plasma.
2.5 μL of Meth-H2O and 5 μL of the internal standard solution (20 ng/mL, IS) were added to 50 μL of the plasma. Subsequently, 150 μL of methanol was added to the mixture to precipitate protein and the samples were then centrifuged at 13000 rpm for 5 min. The upper organic phase was taken out, filtrated with a 0.22 μM microporous membrane, and 2 μL of the sample was injected for the LC-MS analysis.

SMILES: Cc1ccc(Sc2ccccc2N2CCNCC2)c(C)c1 [YY, 1-[2-(2,4-dimethyl-phenylsulfanyl)-phenyl]piperazine]
- effect on length of time that the rats stopped swimming vs blank control (Male SD rats; 1.5 mg/kg gavage, 14 days): did not shorten
- Duration without Move within 5 min (Male SD rats; rats swimming, gavage 14 days, 1.5 mg/kg, n = 10, x ± s): 267.8 ± 27.0 s
- effect on length of time that the tail-suspended mice stopped moving vs blank control (Male ICR mice; 3 mg/kg gavage, two successive weeks): did not shorten
- Duration without Move within 6 min (Male ICR mice; mice tail suspension, gavage 14 days, 3 mg/kg, n = 10, x ± s): 284.9 ± 51.2 s
- Concentrations in Plasma of Rats after Intravenous Injection ([1]; 0.05 h after administration, individual rats): 123.2 ng/mL and 127.2 ng/mL
- Concentrations in Plasma of Rats after Intravenous Injection ([1]; 0.133 h, individual rats): 89 ng/mL and 85.9 ng/mL
- Concentrations in Plasma of Rats after Intravenous Injection ([1]; 0.25 h, individual rats): 78.8 ng/mL and 77.3 ng/mL
- Concentrations in Plasma of Rats after Intravenous Injection ([1]; 0.5 h, individual rats): 76.9 ng/mL and 71.3 ng/mL
- Concentrations in Plasma of Rats after Intravenous Injection ([1]; 1 h, individual rats): 73.3 ng/mL and 68.6 ng/mL
- Concentrations in Plasma of Rats after Intravenous Injection ([1]; 2 h, individual rats): 69.5 ng/mL and 68.1 ng/mL
- Concentrations in Plasma of Rats after Intravenous Injection ([1]; 3 h, individual rats): 53.4 ng/mL and 49.8 ng/mL
- Concentrations in Plasma of Rats after Intravenous Injection ([1]; 4 h, individual rats): 38.5 ng/mL and 27.6 ng/mL
- Concentrations in Plasma of Rats after Intravenous Injection ([1]; 6 h, individual rats): 28.4 ng/mL and 25.8 ng/mL
- Concentrations in Plasma of Rats after Intravenous Injection ([1]; 9 h, individual rats): 16.1 ng/mL and 18.6 ng/mL
- Concentrations in Plasma of Rats after Intravenous Injection ([1]; 12 h, individual rats): 7.86 ng/mL and 7.50 ng/mL
- Concentrations in Plasma of Rats after Intravenous Injection ([1]; 24 h, individual rats): 2.57 ng/mL and 2.89 ng/mL
- concentration at 0.05 h ([1]; 0.05 h, mean, read-out: Concentrations in Plasma of Rats after Intravenous Injection, Mean ± SD): 214 ± 38.9 ng/mL
- concentration at 0.05 h ([1]; 0.05 h after administration, individual rats, read-out: Concentrations in Plasma of Rats after Intravenous Injection): 134 ng/mL
- concentration at 0.133 h ([1]; 0.133 h, individual rats, read-out: Concentrations in Plasma of Rats after Intravenous Injection): 86.5 ng/mL
- concentration at 0.133 h ([1]; 0.133 h, mean, read-out: Concentrations in Plasma of Rats after Intravenous Injection, Mean ± SD): 170 ± 7.8 ng/mL
- concentration at 4 h ([1]; 4 h, individual rats, read-out: Concentrations in Plasma of Rats after Intravenous Injection): 27.2 ng/mL
- concentration at 4 h ([1]; 4 h, mean, read-out: Concentrations in Plasma of Rats after Intravenous Injection, Mean ± SD): 40.9 ± 3.4 ng/mL
- concentration at 6 h ([1]; 6 h, individual rats, read-out: Concentrations in Plasma of Rats after Intravenous Injection): 25.8 ng/mL
- concentration at 6 h ([1]; 6 h, mean, read-out: Concentrations in Plasma of Rats after Intravenous Injection, Mean ± SD): 33.1 ± 3.43 ng/mL
- concentration at 9 h ([1]; 9 h, individual rats, read-out: Concentrations in Plasma of Rats after Intravenous Injection): 14.9 ng/mL
- concentration at 9 h ([1]; 9 h, mean, read-out: Concentrations in Plasma of Rats after Intravenous Injection, Mean ± SD): 19.5 ± 1.49 ng/mL
- concentration at 12 h ([1]; 12 h, individual rats, read-out: Concentrations in Plasma of Rats after Intravenous Injection): 8.44 ng/mL
- concentration at 12 h ([1]; 12 h, mean, read-out: Concentrations in Plasma of Rats after Intravenous Injection, Mean ± SD): 7.85 ± 0.62 ng/mL
- concentration at 24 h ([1]; 24 h, individual rats, read-out: Concentrations in Plasma of Rats after Intravenous Injection): 3.38 ng/mL
- concentration at 24 h ([1]; 24 h, mean, read-out: Concentrations in Plasma of Rats after Intravenous Injection, Mean ± SD): 4.07 ± 0.05 ng/mL
